{"source": "paper PMC9266350", "about": "“Searching for a Paradigm Shift in Auger-Electron Cancer Therapy with Tumor-Specific Radiopeptides Targeting the Mitochondria and/or the Cell Nucleus” (International Journal of Molecular Sciences, 2022)", "key": {"PC3 cells [1]": {"system": "PC3 cells", "assay": "Confocal fluorescence microscopy colocalization with MitoTracker", "assay_type": "cell-based, human", "conditions": "1 µM, 30 min with MitoTracker Deep Red FM, fixed", "description": "To study the intracellular location of uptaken Re-AO-BBN, cells were washed with PBS, incubated with MitoTracker™ Deep Red FM (1:1000, Invitrogen, Bleiswijk, The Netherlands) and Re-AO-BBN (1 µM) in FluoroBrite™ DMEM with high D-glucose for 30 min, fixed with 4% paraformaldehyde (in PBS) at 4 °C for 20 min, washed with PBS, incubated with Hoechst (0.2 µg/mL) for 1 h, washed and left submerged in PBS. Cells were imaged on a Leica TCS SP8 confocal microscope, equipped with a HC Plan Apo 20 × /0.75 dry objective, 405, 488 and 638 nm laser lines, PMT (MitoTracker) and HyD (Hoechst, Re-AO-BBN) detectors. The pinhole was set to 1 airy unit and Nyquist sampling was met in xyz (132 × 132 × 685 nm). Mitochondria accumulation was assessed by the Pearson coefficient between Re-AO-BBN and MitoTracker fluorescence intensities, considering an appropriate threshold."}, "PC3 cells [2]": {"system": "PC3 cells", "assay": "Clonogenic assay", "assay_type": "cell-based, human", "conditions": "highest concentration 10^−7 M (range 10^−10–10^−7 M), 24 h at 37 °C", "protocol": "PC3 cells were seeded at a density of 50000 cells per well in a 24 well-plate and allowed to attach overnight. […] Immediately, after incubation, cells were seeded out in appropriate dilution to form colonies, in 2 weeks, with at least 50 cells. Colonies were fixed with methanol: glacial acetic acid (3:1) and stained with Giemsa (4%).\nThe Plating Efficiency (PE), ratio of the number of colonies to the number of cells seeded, and the Survival Fraction (SF), number of colonies that arise after treatment of cells, expressed in terms of PE, were obtained following the methodology described in [66], where:(1) PE=number of colonies formed /number of cells seeded×100% (2) SF=number of colonies formed after treatment/number of cells seeded×PE"}, "PC3 cells [3]": {"system": "PC3 cells", "assay": "γ-H2AX assay and foci analysis", "assay_type": "cell-based, human", "conditions": "1.85 MBq, 24 h at 37 °C", "description": "PC3 cells were seeded at a density of 10000 cells per well in an eight-well chamber slide and allowed to attach overnight. […] PC3 cells were washed three times with PBS, and fixed with 4% formaldehyde in PBS for 15 min. After washing with PBS, cells were permeabilized with Triton X-100 (0.5%) at room temperature for 5 min followed by two washing steps with 1% BSA in PBS. Then, cells were incubated with an anti-γ-H2AX primary antibody (mouse anti-γ-H2AX (ser139), Stressgen) at 2 μg/mL for 1 h. After being washed twice with 1% BSA in PBS, cells were incubated with a Texas Red-X-conjugated anti-mouse secondary antibody at […] for 1 h, followed by three washing steps with PBS. Cells were finally mounted in anti-fade mounting media with DAPI (Vectashield H-1200, Vector Laboratories).\nCells were analyzed under 64x magnification. Several high-quality 2D images were randomly collected in each slide and analyzed using the pipeline Speckle Count from the freeware CellProfiler. At least 200 nuclei were analyzed per experiment per dose. Statistical analysis was performed with Origin 7.5 software."}, "human GRPR": {"molecular_target": "T1, human GRPR (Homo sapiens, UniProt P30550)", "T1 construct": "endogenous in cells; host or cells: PC3 human prostate carcinoma cells (intact, attached)", "T1 sequence (P30550 whole entry)": "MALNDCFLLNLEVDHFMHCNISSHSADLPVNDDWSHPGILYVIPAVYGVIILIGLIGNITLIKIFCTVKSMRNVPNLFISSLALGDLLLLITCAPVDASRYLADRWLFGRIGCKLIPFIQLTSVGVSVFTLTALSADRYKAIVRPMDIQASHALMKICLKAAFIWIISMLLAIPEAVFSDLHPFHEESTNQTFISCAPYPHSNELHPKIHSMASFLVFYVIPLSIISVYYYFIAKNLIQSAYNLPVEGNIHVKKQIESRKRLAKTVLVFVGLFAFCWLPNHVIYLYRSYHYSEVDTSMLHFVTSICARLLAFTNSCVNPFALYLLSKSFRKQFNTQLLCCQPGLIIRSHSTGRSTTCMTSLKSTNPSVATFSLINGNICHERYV", "assay": "Competitive radioligand binding assay against [125I-Tyr4]-BBN", "conditions": "PC3 cells, 90 min at 4 °C, one-site model, mean ± SEM of three independent experiments; read-out: IC50, displacement of [125I-Tyr4]-BBN from GRPR", "description": "The in vitro cell-binding assays were performed with the prostate carcinoma cell line PC3. Briefly, cells were seeded in 24-well plates (150,000 cells per well) and allowed to attach overnight. […] The competition was interrupted by discarding supernatants and washing the cells twice with ice-cold PBS with 0.2% BSA. Cells were then lysed with 1 M NaOH treatment (2 × 0.4 mL, 10 min at 37 °C). Lysates were collected and counted for their radioactivity content in an automated γ–counter (HIDEX AMG, Hidex, Turku, Finland)."}, "PC3 cells [4]": {"system": "PC3 cells", "assay": "Mitochondrial ToxGlo assay (cell membrane integrity and cellular ATP levels)", "conditions": "2 h at 37 °C, HBSS with galactose and 1% BSA, CCCP 10 μM", "description": "PC3 cells were seeded at a density of 10,000 cells per well in a 96 well-plate and allowed to attach overnight. […] Cells incubated only with this medium were used as a basal control and cells incubated with CCCP (10 μM) as a positive control for mitochondrial inhibition. After the 2 h, the Mitochondrial Toxglo assay was performed according to the manufacturer’s instructions (Promega). Assays were performed in triplicate."}}, "note": "Where a SMILES comes first, the peptide text is derived from it. Where no end group is shown, it is not given here. The star is where a group is joined. X1 = Cc1nn(CCN(CCN)CCCC(=O)NCCC[n+]2c3cc(N(C)C)ccc3cc3ccc(N(C)C)cc32)c(C)c1CC(=O)*; pyrazolyl‑diamine chelator carrying TPP = not defined here", "data": [{"molecule": "CSCC[C@H](NC(=O)[C@H](CC(C)C)NC(=O)[C@H](Cc1c[nH]cn1)NC(=O)CNC(=O)[C@@H](NC(=O)[C@H](C)NC(=O)[C@H](Cc1c[nH]c2ccccc12)NC(=O)[C@H](CCC(N)=O)NC(=O)CNC(=O)CNC(=O)CNC(=O)Cc1c(C)nn(CCN(CCN)CCCC(=O)NCCC[n+]2c3cc(N(C)C)ccc3cc3ccc(N(C)C)cc32)c1C)C(C)C)C(N)=O", "note": "[Re-AO-BBN] (X1-GGGQWAVGHLM-NH2; C-terminus assumed)", "values": [{"measurement": "Pearson's Correlation Coefficient (PCC) of colocalization with Mitotracker dye", "setting": "PC3 cells [1]", "result": 0.31}, {"measurement": "effect on survival of PC3 cells compared with the control", "setting": "PC3 cells [2]", "result": "no effect"}]}, {"molecule": "[O]=[99Tc](=[O])(=[O])[O-]", "note": "[^99mTcO4^−]", "values": [{"measurement": "foci number / DNA damage relative to the control (in words)", "setting": "PC3 cells [3]", "result": "did not cause any increase"}]}, {"molecule": "Re-TPP-BBN: Re(I) congener of 99mTc-TPP-BBN, surrogate of the 99mTc complex ({pyrazolyl‑diamine chelator carrying TPP}-GGGQWAVGHLM; ends and bridges not checked; also: Re(I) complex of the chelator)", "values": [{"measurement": "IC50", "setting": "human GRPR", "result": "0.38 ± 0.14", "unit": "nM"}]}, {"molecule": "cyanide-m-chlorophenylhydrazone [CCCP]", "values": [{"measurement": "cell membrane integrity / viability versus control", "setting": "PC3 cells [4]; radiocomplexes 0.74 and 1.85 MBq (loss at the highest activity)", "result": "did not compromise their viability"}, {"measurement": "ATP production / ATP levels versus control cells", "setting": "PC3 cells [4]; radiocomplexes 0.74 and 1.85 MBq", "result": "significantly reduced the ATP production"}]}]}
